The values below come from EP4512806A1, “MOLECULAR GLUE DEGRADERS AND USES THEREOF” (Mablink Bioscience, priority 2023, dated 2025).

SMILES strings stand for the structures. Peptide text beside a SMILES is read from it. * marks the point of attachment. Cbz = O=C(OCc1ccccc1)*

What is called IC50 is the concentration needed to halve the response being measured.

For data set [1], the target named is T1, MDR1 (Homo sapiens, UniProt P08183).
T1 construct: host or cells: MDCK-MDR1
Description: MDR1 efflux substrate assay (MDCK-MDR1). The conditions noted are these: MDCK-MDR1, 5µM, 60 min, in words. It counts as in vitro ADME. As to the method: (§1) MDR1 and BCRP efflux substrate assays were conducted in MDCK-MDR1 and MDCK-BCRP in vitro models (Preadyport™, Solvo Biotech) at Symeres (Nederland). Compound of the invention (donor well concentration of 5µM) were incubated in cell monolayer 24-transwell Preadyport system, using Preadyport recommended pH 7.4 assay buffer (donor and receiver wells). After 60 min of incubation (no shaking), samples are collected and suspended into triple volume of 66% cold acetonitrile. Samples are stored at -20°C until thawed, centrifuged and analyzed by LC-MS. Quinidine was used a positive control for the MDR1 assay, and prazosin was used as a positive control for the BCRP assay. Exatecan was used as a control, known not to be an MDR1 substrate. Residual DMSO content from compounds stock solutions was below 1% (v/v). The assay was performed in duplicate. The quantification of test compounds in donor or receptor compartment is conducted using relative LC/MS peak areas (samples of initial incubation solutions are used as a single point calibrator), without any spiked standard samples. The data is used for estimating apparent permeability (Papp) and calculation of efflux ratio.
MDR1 is protein of the tumor cell membrane that pumps the anticancer drugs out of cancer cells, thereby rendering the cell drug-resistant. The Papp (10^-6 cm/s) B (acceptor = basolateral) to A (donor = apical) reflects the susceptibility of a compounds to be pumped out of a tumor and as such a low Papp B→A value is advantageous in the context of oncology. The efflux ratio B/A reflects the overall ability of a compounds to enter MDR1-expressing tumor cells (equilibrium between ability to passively enter the cell A→B and susceptibility to be pumped out of a tumor B→A).

For data set [2], the target named is T2, BCRP (Homo sapiens, UniProt Q9UNQ0).
T2 construct: host or cells: MDCK-BCRP
T2 sequence (Q9UNQ0 1-655): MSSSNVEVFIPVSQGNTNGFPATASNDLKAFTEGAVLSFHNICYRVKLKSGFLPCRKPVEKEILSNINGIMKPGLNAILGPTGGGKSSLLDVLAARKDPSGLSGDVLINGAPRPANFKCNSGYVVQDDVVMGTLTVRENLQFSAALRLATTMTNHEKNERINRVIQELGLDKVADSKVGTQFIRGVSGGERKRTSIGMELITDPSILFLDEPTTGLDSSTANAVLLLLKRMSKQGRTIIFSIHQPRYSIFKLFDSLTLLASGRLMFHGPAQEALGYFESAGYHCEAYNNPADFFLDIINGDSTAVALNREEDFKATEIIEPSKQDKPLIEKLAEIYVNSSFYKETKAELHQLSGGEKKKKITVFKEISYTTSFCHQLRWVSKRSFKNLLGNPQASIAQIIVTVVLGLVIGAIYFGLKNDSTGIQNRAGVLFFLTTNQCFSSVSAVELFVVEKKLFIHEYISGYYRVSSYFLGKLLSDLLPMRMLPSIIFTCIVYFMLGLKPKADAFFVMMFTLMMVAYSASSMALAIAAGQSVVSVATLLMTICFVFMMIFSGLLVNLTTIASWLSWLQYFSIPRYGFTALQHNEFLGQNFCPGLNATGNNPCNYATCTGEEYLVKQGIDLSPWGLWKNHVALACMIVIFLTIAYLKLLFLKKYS
Put plainly: BCRP efflux substrate assay (MDCK-BCRP). It counts as in vitro ADME. Conditions: 5µM, 60 min, in words. The method, then: as §1
BCRP, like MDR1, is a protein of the tumor cell membrane that pumps the anticancer drugs out of cancer cells, thereby rendering the cell drug-resistant. This multidrug-resistant protein is particularly expressed in breast and lung cancers. The efflux ratio B/A reflects the overall ability of a compounds to enter BCRP-expressing tumor cells (equilibrium between ability to passively enter the cell A→B and susceptibility to be pumped out of a tumor B→A).

A short description of data set [3]: Passive permeability assessment (PAMPA assay). In kind it is in vitro ADME. The conditions noted are these: in words. In general terms: PAMPA measures passive passage across an artificial lipid membrane.
Description: Stock solutions of compounds of the invention were prepared in dimethyl sulfoxide (DMSO) to a final concentration of 10 mM. Each stock solution was diluted to 50 µM in pH 7.4 Prisma HT buffer (pION) in the presence of 10% MeOH (v/v). 200 µL were added to each well of the donor plate in quintuplicate. […] The acceptor filter plate was carefully placed on top of the donor plate to form a "sandwich." The sandwich was incubated at 25°C for 5 h, at 300 rpm. UV-vis spectra of the solutions in the blank, reference, acceptor, and donor plates were measured using a Tecan Infinite 200 PRO M Nano Plus microplate reader. For each compound, apparent permeability values Papp (10^-6 cm/s) were calculated using the PAMPA Explorer software v.3.6 (pION).
The test system of data set [4] is BT-474. Description: In vitro cytotoxicity assay (MTT). It counts as cell-based, human. The conditions noted are these: 6 days incubation. The source says: (§2) Human cancer cell lines used in the present project were purchased from either the American Type Culture Collection (ATCC), The Leibniz Institute DSMZ German Collection of Microorganisms and Cell Cultures GmbH (DSMZ) or the European Collection of Authenticated Cell Cultures (ECACC). For use in experiments, cells were cultivated following good and established cell culture practices, following instructions from the original ATCC/DSMZ/ECACC supplier for cell culture media & supplement, cryopreservation, and subculturing procedures. Cells were incubated under a 5% CO2 atmosphere at 37°C for no longer than 2 months.
(§3) In vitro cytotoxicity of compounds of the disclosure was assessed on several cancerous human cell lines. Cells were plated in 96-well plates at an appropriate density depending on the cell line (between 1000 and 10 000 cells/well in 100µL of appropriate culture media) and incubated at 37°C for 24 hours. Serial dilutions of the tested compound previously dissolved in culture media (50µL) were added, and incubation was carried at 37°C out for 6 days. MTT (5mg/mL in PBS, 20µL, Sigma-Aldrich) was added into the wells, and incubation was continued for 1 to 4 hours at 37°C. Culture media was then carefully removed, and well content was homogeneously dissolved with acidified isopropanol. Absorbance values were measured on a microplate reader using a wavelength of 570 nm (with a reference wavelength of 690 nm). The IC50 concentration values compared to untreated control cells were determined using inhibition dose response curve fitting (GraphPad Prism 9). Exatecan mesylate (cat#HY-13631A) and CR8 (CAS# 294646-77-8; cat#HY-18340) were purchased from MedChemExpress (China).

The test system of data set [5] is NCI-N87. Put plainly: In vitro cytotoxicity assay (MTT). In kind it is cell-based, human. Conditions: 6 days incubation.
Text: as §2, §3

In data set [6] the test system is MDA-MB-231. Put plainly: In vitro cytotoxicity assay (MTT). It counts as cell-based, human. Conditions: 6 days incubation.
Text: as §2, §3

Data set [7] deals with MDA-MB-453. Description: In vitro cytotoxicity assay (MTT). The conditions noted are these: 6 days incubation. In kind it is cell-based, human.
Text: as §2, §3

For data set [8], the system named is SKBR-3. Description: In vitro cytotoxicity assay (MTT). In kind it is cell-based, human. The conditions noted are these: 6 days incubation.
Text: as §2, §3

Data set [9] in a line: In vivo mice tolerability assessment. The conditions noted are these: female CD-1 mice, single intravenous 1mg/kg dose, Mean. As to the method:
All animal procedures were performed in accordance with the European Union directive 86/609/EEC. Experiments were performed under individual permit and in accredited animal care facilities.
Mouse tolerability experiments were performed with selected compounds of the disclosure. Female CD-1 mice (n=5 mice per group) were treated with a single intravenous 1mg/kg dose of compound. Vehicle was PBS pH 6.0. Mice were carefully monitored for mortality, external clinical findings, weight loss, behavior and apparent signs of toxicity over the course of 21 days.

In data set [10] the target is T3, CycK (Homo sapiens, UniProt O75909).
T3 construct: endogenous in cells; host or cells: JIMT-1
T3 sequence (O75909 whole entry): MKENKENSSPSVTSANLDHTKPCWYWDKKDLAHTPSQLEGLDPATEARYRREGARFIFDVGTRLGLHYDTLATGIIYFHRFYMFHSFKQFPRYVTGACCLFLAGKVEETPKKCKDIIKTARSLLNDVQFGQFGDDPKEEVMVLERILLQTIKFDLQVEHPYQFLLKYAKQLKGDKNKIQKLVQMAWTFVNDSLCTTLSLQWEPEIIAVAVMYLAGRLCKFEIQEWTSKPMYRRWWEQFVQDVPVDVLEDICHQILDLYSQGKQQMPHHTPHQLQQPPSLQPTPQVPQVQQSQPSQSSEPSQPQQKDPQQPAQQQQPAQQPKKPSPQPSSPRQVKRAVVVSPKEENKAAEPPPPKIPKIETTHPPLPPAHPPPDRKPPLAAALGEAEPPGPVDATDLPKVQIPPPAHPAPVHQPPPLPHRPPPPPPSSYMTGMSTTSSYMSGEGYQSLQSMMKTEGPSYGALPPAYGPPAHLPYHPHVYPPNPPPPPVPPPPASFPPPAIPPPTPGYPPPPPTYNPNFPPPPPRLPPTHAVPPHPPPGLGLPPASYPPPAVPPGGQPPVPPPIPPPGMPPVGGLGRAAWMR
T3 sequence (Q9NYV4 whole entry partner): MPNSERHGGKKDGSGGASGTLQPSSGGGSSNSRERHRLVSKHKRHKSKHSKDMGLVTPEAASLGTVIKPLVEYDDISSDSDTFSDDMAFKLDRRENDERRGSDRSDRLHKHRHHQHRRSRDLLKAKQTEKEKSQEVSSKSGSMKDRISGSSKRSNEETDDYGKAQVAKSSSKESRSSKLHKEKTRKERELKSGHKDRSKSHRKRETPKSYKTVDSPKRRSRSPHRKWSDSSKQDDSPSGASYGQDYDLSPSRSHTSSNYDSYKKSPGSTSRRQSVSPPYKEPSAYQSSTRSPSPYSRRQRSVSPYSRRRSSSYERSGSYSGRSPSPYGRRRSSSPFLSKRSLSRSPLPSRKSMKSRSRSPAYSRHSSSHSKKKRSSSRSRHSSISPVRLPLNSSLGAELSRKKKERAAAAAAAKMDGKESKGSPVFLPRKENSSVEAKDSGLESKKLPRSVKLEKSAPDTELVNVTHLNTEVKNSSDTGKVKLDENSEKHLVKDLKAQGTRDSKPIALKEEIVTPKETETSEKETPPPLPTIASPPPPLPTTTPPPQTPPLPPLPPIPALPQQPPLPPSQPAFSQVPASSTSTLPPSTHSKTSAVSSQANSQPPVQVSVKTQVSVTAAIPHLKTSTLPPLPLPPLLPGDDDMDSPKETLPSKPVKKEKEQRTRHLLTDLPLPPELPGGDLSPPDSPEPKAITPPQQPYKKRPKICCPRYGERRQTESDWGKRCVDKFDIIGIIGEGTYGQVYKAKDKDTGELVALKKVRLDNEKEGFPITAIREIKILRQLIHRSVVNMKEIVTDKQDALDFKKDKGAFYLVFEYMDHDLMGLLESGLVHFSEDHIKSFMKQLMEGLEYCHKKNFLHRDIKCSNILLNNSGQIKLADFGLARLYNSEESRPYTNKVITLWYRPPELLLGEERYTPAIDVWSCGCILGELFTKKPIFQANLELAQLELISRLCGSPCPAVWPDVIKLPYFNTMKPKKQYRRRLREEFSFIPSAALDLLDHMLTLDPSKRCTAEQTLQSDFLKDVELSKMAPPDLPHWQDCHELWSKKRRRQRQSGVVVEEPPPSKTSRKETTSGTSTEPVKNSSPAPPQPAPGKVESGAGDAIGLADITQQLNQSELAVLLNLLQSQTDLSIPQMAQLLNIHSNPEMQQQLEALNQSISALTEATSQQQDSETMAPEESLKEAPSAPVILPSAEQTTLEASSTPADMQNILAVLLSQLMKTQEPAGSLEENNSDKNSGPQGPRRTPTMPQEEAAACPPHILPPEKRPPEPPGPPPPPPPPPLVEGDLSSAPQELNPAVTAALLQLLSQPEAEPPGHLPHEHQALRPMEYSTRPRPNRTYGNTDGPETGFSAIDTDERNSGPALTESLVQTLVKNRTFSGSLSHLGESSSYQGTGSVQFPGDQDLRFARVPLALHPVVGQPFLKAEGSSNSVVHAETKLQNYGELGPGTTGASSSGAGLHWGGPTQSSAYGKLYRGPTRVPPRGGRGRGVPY
T3 sequence (Q16531 whole entry partner): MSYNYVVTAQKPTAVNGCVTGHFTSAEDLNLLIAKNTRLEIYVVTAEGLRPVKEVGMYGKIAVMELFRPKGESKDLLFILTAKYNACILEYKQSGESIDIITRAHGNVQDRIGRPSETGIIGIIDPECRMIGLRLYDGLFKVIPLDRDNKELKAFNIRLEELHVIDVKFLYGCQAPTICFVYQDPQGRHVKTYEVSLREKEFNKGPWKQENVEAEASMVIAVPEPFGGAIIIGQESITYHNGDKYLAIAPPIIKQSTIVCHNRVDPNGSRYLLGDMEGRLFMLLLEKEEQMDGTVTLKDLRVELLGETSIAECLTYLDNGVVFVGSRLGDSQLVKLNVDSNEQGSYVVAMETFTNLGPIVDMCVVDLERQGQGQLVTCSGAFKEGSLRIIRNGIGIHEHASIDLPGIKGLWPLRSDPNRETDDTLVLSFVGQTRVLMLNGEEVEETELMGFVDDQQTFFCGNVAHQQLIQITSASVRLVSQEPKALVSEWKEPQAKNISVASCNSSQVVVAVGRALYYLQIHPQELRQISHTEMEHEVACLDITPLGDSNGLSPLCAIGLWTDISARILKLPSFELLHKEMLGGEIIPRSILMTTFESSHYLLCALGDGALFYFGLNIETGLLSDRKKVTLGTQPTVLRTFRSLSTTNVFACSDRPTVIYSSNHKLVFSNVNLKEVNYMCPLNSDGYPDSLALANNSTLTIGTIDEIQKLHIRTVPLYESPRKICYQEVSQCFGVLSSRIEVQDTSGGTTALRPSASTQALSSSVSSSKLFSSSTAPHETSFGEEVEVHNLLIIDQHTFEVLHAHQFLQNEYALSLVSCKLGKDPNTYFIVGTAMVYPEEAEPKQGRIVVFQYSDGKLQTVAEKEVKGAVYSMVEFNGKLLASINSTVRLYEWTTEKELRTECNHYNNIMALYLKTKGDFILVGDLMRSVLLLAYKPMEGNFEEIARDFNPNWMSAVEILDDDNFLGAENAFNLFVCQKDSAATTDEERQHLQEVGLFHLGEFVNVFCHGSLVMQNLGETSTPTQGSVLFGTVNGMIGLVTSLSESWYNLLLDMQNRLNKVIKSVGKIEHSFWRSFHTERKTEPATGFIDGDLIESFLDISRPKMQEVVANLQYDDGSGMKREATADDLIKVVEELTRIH
Put plainly: CycK protein quantification by Western Blot in JIMT-1 cells. In kind it is cell-based. The conditions noted are these: 2h. As to the method: 1×10^6 JIMT-1 cells were plated in 3mL of DMEM/FBS 90:10 (v/v) in 6-well plates and incubated overnight. Cells were treated with the compound 2384 of the invention with or without the proteasome inhibitor MG-132 (MedChemExpress, Cat HY-13259) for 2h. Cells were harvested, and protein were extracted using complete RIPA buffer (RIPA buffer, 1 mM DTT, 1M NaF, 100 mM sodium orthovanadate, phosphatase inhibitor buffer and protease inhibitors) for 1 hour on ice. Lysate were centrifuged 15min at 12 000g at 4°C. and proteins were mixed with 4x Laemmli Sample Buffer (Bio-Rad), heated at 95 °C for 5 mins and separated by SDS PAGE (PROTEAN TGX Stain-Free Gels, Bio-Rad). Proteins were then transferred onto PVDF membrane (iBlot®2 PVDF stacks, Invitrogen) using the iBlot2 device (Invitrogen) and blocked with TBS buffer (Intercept® Blocking Buffer, LI-COR Biosciences). Primary antibodies were incubated overnight at 4°C and secondary antibodies (IRDye Infrared Dyes from LI-COR Biosciences) 1 hour at room temperature. Used primary antibody were: anti-CycK (cat#A301-939A, Bethyl Laboratories, dil. 1:1000) and anti-β-actin (cat#A5441, Sigma-Aldrich, dil. 1:5000). Membranes were scanned using a c500 Imaging System (Azure Biosystems) and densitometric quantification were performed using imaged software. Protein levels were normalized against β-actin.
In general terms: In western blotting, separated proteins are transferred to a membrane and probed.

Data set [11] has as its system JIMT-1. Put plainly: In vitro cytotoxicity assay (MTT). In kind it is cell-based, human. Conditions: 6 days incubation.
Text: as §2, §3

T1 sequence (P08183 whole entry): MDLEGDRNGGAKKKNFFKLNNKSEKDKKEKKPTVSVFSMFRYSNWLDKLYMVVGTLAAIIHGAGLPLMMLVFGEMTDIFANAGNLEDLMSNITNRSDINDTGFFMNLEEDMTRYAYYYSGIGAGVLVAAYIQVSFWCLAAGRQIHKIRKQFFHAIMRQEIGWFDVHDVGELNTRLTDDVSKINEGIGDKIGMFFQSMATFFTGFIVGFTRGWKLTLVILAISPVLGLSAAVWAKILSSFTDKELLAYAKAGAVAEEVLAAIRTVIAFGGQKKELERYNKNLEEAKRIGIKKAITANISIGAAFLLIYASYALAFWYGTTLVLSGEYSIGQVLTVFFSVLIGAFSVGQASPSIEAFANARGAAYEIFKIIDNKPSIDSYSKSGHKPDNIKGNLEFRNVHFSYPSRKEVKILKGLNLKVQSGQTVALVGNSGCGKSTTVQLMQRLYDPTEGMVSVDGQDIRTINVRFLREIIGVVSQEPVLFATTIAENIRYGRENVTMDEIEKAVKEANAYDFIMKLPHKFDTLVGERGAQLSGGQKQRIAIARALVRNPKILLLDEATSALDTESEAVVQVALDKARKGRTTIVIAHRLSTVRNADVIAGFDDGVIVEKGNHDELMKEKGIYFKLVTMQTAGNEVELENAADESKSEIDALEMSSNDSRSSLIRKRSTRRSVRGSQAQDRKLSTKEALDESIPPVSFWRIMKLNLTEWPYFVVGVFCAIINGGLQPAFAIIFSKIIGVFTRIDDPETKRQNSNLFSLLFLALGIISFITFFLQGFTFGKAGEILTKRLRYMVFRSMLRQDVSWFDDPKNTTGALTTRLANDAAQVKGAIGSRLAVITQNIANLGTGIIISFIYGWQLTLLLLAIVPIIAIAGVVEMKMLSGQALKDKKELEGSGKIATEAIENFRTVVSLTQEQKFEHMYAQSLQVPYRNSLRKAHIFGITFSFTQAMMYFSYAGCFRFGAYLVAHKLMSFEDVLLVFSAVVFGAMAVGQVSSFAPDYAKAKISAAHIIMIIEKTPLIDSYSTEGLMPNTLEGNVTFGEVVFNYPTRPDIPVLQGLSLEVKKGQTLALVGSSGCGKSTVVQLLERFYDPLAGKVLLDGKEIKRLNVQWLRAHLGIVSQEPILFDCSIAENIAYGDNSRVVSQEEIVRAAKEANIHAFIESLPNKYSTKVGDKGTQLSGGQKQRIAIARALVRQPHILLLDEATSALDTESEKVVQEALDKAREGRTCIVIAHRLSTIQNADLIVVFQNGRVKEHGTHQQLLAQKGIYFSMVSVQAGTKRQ

With `CNCCN(C)c1nc(NCc2ccc(-c3ccccn3)cc2)n2ncc(Br)c2n1` [Compound 2605], the MDR1 efflux potential result in [1] is recorded as “low level”. For the same molecule, the BCRP efflux potential result in [2] is given as “low level”.

With `N[C@H]1CCCC[C@@H]1Nc1nc(NCc2ccc(-c3ccccn3)cc2)n2ncc(Br)c2n1` [Compound 2671], the passive permeability potential result in [3] is “high”.

Turning to `Brc1cnn2c(NCc3ccc(-c4ccccn4)cc3)nc(N[C@H]3CCNC3)nc12` [Compound 2657], the half-maximal inhibitory concentration (IC50) in data set [4] was 1.71 nM; in [5], 0.43 nM; in data set [6], 0.56 nM; in data set [7] it was 0.77 nM; in [8] it was 0.13 nM. Also, the “average weight change (% initial weight)” value in data set [9] (Study Day 1) is on record as 0.0 % initial weight; in [9] (Study Day 2), 1.3 % initial weight; in data set [9] (Study Day 3), 1.5 % initial weight; in data set [9] (Study Day 4) it was 1.7 % initial weight; in [9] (Study Day 5) it was 2.3 % initial weight; in data set [9] (Study Day 6) it was 4.2 % initial weight. Besides, the “average weight change (% initial weight)” value in data set [9] (Study Day 7) was 3.3 % initial weight; in [9] (Study Day 8) it was 4.2 % initial weight; in [9] (Study Day 9) it was 4.5 % initial weight; in data set [9] (Study Day 10), 7.8 % initial weight; in [9] (Study Day 11) it was 7.7 % initial weight; in [9] (Study Day 12) it was 8.0 % initial weight. In addition, the “average weight change (% initial weight)” value in data set [9] (Study Day 13) came out at 7.9 % initial weight; in data set [9] (Study Day 14), 8.0 % initial weight; in data set [9] (Study Day 15), 7.9 % initial weight; in [9] (Study Day 16), 9.4 % initial weight; in data set [9] (Study Day 17), 9.3 % initial weight; in [9] (Study Day 18), 9.8 % initial weight. The “average weight change (% initial weight)” value in [9] (Study Day 19) is reported as 10.5 % initial weight; in data set [9] (Study Day 20) it was 11.4 % initial weight; in [9] (Study Day 21), 12.0 % initial weight.

Regarding `CN(CCN)c1nc(NCc2ccc(-c3ccccn3)cc2)n2ncc(Br)c2n1` [Compound 2600], the MDR1 efflux potential entry in [1] is listed as “low level”. Also, the BCRP efflux potential result in data set [2] is reported as “low level”.

Turning to `CC(C)C[C@@H](C=O)NC(=O)[C@H](CC(C)C)NC(=O)[C@H](CC(C)C)NC(=O)OCc1ccccc1` [MG-132, reference compound] (Cbz-Leu-Leu-Leu-aldehyde), the “CycK protein content in combination with proteasome inhibitor” value in data set [10] (degrader combined with MG-132) is “restored the content in cycK protein”.

For the molecule `Brc1cnn2c(Nc3ccc(CN4CCOCC4)cc3)nc(NC3CCNCC3)nc12` [Compound 2554], the IC50 in data set [4], in data set [11], in data set [5], in data set [6], in data set [7] and in data set [8] was > 100 nM each time.

For `NC[C@H]1CC[C@H](Nc2nc(NCc3ccc(-c4ccccn4)cc3)n3ncc(Br)c3n2)CC1` [Compound 2636], the passive permeability potential result in [3] was “moderate”.

With `NCCCCNc1nc(NCc2ccc(-c3ccccn3)cc2)n2ncc(Br)c2n1` [Compound 2585], the passive permeability potential entry in data set [3] is on record as “none”.

For the molecule `N[C@H]1CCN(c2nc(NCc3ccc(-c4ccccn4)cc3)n3ncc(Br)c3n2)C1` [Compound 2655], the MDR1 efflux potential result in data set [1] is on record as “low level”. In addition, the BCRP efflux potential entry in [2] is “low level”.

`CN(C)C/C=C/C(=O)Nc1ccc(C(=O)N2CCC[C@@H](Nc3ncc(Cl)c(-c4c[nH]c5ccccc45)n3)C2)cc1` [THZ-531, reference compound]: the CycK protein content result in data set [10] (1µM final concentration) is reported as “no impact”.
